Bounds are passed on as bounds.

This test relates to Endogenous Huntingtin Protein. The experiment in a line: Endogenous Huntingtin Protein Assay (Meso Scale Discovery ELISA-based electrochemiluminescence). The test is classed as cell-based. The conditions noted are these: MSD plates coated with MW1 (expanded polyglutamine) or MAB2166 capture antibody; lysates. Put shortly: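 MSD electrochemiluminescence sandwich ELISA: MW1 (expanded polyQ) or MAB2166 capture antibody at 1 μg/mL, samples incubated overnight at 4° C. Detection with rabbit monoclonal #5656S then SULFO-TAG anti-rabbit antibody, each 0.25 μg/mL for 1 h at room temperature.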
(An ELISA detects its analyte on a solid surface through an enzyme-linked reagent.)
What is called IC50 is the point on the concentration scale where inhibition reaches its midpoint. Lower therefore signals greater potency in that assay. For the molecule `CC1(C)CC(n2nnc3cc(-c4ccc(-c5ccncc5F)cc4O)nnc32)CC(C)(C)N1` [Cpd 101, 5-(3-fluoropyridin-4-yl)-2-[3-(2,2,6,6-tetramethylpiperidin-4-yl)-3H-[1,2,3]triazolo[4,5-c]pyridazin-6-yl]phenol], the 50% inhibitory concentration (IC50) lay in the range of 500 to 1000 nM.

In turn, `CC1(C)CC(n2nnc3cc(-c4ccc(-n5ccnc5)cc4O)nnc32)CC(C)(C)N1` [Cpd 70, 5-(1H-imidazol-1-yl)-2-[3-(2,2,6,6-tetramethylpiperidin-4-yl)-3H-[1,2,3]triazolo[4,5-c]pyridazin-6-yl]phenol] returned an IC50 of at most 100 nM.

Molecule `CN(C)c1cc(-c2ccc(-c3cc4nnn(C5CC(C)(C)NC(C)(C)C5)c4nn3)c(O)c2)ccn1` [Cpd 100, 5-[2-(dimethylamino)pyridin-4-yl]-2-[3-(2,2,6,6-tetramethylpiperidin-4-yl)-3H-[1,2,3]triazolo[4,5-c]pyridazin-6-yl]phenol] showed an IC50 of 1000 to 3000 nM.

On to `CC1(C)CC(n2nnc3cc(-c4ccc(-c5cnn(C(F)F)c5)cc4O)nnc32)CC(C)(C)N1` [Cpd 71, 5-[1-(difluoromethyl)-1H-pyrazol-4-yl]-2-[3-(2,2,6,6-tetramethylpiperidin-4-yl)-3H-[1,2,3]triazolo[4,5-c]pyridazin-6-yl]phenol], for which the IC50 lay within 100 to 500 nM.

In turn, `Cc1nc2cc(-c3cc(F)c(-c4cn[nH]c4)cc3F)nnc2n1C1CC(C)(C)NC(C)(C)C1` [Cpd 6, 3-[2,5-difluoro-4-(1H-pyrazol-4-yl)phenyl]-6-methyl-7-(2,2,6,6-tetramethylpiperidin-4-yl)-7H-imidazo[4,5-c]pyridazine] registered an IC50 of 500 to 1000 nM.

For the molecule `Oc1cc(-c2cn[nH]c2)ccc1-c1cc2[nH]cc(C3=CC4COCC(C3)N4)c2nn1` (stereo not shown) [Cpd 28, 2-[7-(3-oxa-9-azabicyclo[3.3.1]non-6-en-7-yl)-5H-pyrrolo[3,2-c]pyridazin-3-yl]-5-(1H-pyrazol-4-yl)phenol], the IC50 was in the range of 1000 to 3000 nM.

Regarding `CC1(C)CC(n2nnc3cc(-c4ccc(-c5ccn6cncc6c5)cc4O)nnc32)CC(C)(C)N1` [Cpd 88, 5-(imidazo[1,5-a]pyridin-7-yl)-2-[3-(2,2,6,6-tetramethylpiperidin-4-yl)-3H-[1,2,3]triazolo[4,5-c]pyridazin-6-yl]phenol], the IC50 was in the range of 100 to 500 nM.

For the origin of these results see patent publication US11858941B2, “Heterocyclic and heteroaryl compounds for treating Huntington's disease” (PTC THERAPEUTICS, INC., priority 2018, dated 2024).
